Test results published in patent publication US11964938B2, “3-phenyl-4-hexynoic acid derivatives as GPR40 agonists” (CELON PHARMA S.A., priority 2018, dated 2024).
Where a name gives a salt, the structure may show the parent alone.

Tests used:
NTCP = target: T1, NTCP (Homo sapiens, UniProt Q14973); assay: Uptake transporter inhibition assay, NTCP; format: cell-based; conditions: HEK293 cells overexpressing transporter
T1 construct: host or cells: HEK293
T1 sequence (Q14973 1-349): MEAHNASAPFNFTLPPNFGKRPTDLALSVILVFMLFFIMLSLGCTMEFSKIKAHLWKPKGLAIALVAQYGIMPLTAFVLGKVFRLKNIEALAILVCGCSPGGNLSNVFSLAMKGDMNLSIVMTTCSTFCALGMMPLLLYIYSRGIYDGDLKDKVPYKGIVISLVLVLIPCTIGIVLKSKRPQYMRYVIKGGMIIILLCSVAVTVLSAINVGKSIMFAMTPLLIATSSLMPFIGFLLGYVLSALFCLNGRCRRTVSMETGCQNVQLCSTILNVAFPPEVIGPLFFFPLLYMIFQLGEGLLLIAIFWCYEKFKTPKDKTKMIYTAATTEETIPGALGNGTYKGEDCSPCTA
Procedure: Experiment B4: Bile Acid Transporters Inhibition in the Liver.
The compound was tested on a panel of 10 transporters: BSEP, MRP2, MRP3, MRP4 in a vesicular transport inhibition assay and NTCP, OAT1, OAT2v1, OATP1A2, OATP1B1, OATP1B3 in an uptake transporter inhibition assays.
Transporter uptake inhibition test was performed on mammal HEK293 cells overexpressing of a respective transporter. Cells were cultured at 37±1° C. and seeded on 96-well tissue culture plate at 1×10^5/well. Substrate was removed prior to experiment and cells were washed twice with 100 μl of respective buffer (HK pH 7.4 for OATP1B1 and HBSS pH 7.4 for NTCP, OAT1, OAT2v1, OATP1A2, and OATP1B3). Uptake studies were performed at 37±1° C. in 50 μl of respective buffer containing radioactively tagged substrate and tested compound or solvent.
After experiment cells were washed twice with 100 μl of ice-cold respective buffer and lysed with 50 μl of 0.1M NaOH. Transport of radioactively tagged substrate was determined by scintillation counter measurement.

MRP4 = target: T2, MRP4 (Homo sapiens, UniProt O15439); assay: Vesicular transport inhibition assay, MRP4; format: biochemical; conditions: membrane vesicles from HEK293 cells
T2 construct: host or cells: HEK293 (membrane vesicles)
T2 sequence (O15439 1-1325): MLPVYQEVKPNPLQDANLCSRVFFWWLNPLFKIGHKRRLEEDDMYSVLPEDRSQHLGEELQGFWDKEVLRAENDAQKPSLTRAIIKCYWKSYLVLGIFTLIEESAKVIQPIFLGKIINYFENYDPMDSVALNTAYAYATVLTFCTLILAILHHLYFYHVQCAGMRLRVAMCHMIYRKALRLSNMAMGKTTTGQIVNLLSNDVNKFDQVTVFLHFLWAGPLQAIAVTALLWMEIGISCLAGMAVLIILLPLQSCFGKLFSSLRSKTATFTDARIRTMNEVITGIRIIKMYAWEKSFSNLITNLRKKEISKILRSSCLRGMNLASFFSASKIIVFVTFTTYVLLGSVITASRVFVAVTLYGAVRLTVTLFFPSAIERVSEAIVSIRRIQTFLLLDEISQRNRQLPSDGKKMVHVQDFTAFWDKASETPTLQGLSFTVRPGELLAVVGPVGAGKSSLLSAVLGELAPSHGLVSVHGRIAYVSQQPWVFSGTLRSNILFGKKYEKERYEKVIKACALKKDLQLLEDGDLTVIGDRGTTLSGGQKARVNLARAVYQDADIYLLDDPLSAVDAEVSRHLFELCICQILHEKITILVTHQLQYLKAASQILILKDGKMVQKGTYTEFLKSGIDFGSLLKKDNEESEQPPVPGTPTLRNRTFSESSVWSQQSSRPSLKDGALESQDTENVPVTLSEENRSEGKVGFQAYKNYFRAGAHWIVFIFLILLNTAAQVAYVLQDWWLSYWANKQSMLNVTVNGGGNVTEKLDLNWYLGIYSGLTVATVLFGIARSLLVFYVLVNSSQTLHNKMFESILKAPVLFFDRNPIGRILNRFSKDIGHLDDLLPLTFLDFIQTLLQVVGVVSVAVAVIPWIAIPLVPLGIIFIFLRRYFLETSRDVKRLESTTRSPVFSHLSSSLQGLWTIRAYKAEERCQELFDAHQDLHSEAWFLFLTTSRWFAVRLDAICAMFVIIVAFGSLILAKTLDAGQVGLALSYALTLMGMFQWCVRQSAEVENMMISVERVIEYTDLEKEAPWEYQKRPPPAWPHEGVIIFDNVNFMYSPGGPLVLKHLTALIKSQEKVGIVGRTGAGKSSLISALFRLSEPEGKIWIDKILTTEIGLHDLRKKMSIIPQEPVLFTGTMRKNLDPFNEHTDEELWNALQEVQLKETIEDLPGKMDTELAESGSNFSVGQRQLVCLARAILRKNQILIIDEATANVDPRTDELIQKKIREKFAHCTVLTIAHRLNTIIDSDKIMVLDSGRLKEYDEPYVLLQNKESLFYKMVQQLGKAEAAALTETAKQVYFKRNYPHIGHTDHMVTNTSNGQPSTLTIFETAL
Procedure: Experiment B4: Bile Acid Transporters Inhibition in the Liver. […] The compound was tested on a panel of 10 transporters: BSEP, MRP2, MRP3, MRP4 in a vesicular transport inhibition assay and NTCP, OAT1, OAT2v1, OATP1A2, OATP1B1, OATP1B3 in an uptake transporter inhibition assays. Vesicular transport inhibition assay was performed on membrane vesicles isolated from mammal HEK293 cells overexpressing human ABC transporters. Tested compound were incubated with vesicles and substrates for respective tested transporters. Incubation was performed in the presence of 4 mM ATP or AMP in order to differentiate between uptake by a transporter and passive diffusion into vesicles. In the case of MRP2 and MRP3, reactions were performed in the presence of 2 mM glutathione. Tested compounds were added to the reaction mixture dissolved in 0.75 μl of a solvent (1% of final incubation volume). Reaction mixtures were preincubated for 15 minutes at 37±1° C. Reactions were started by the addition of 25 μl of 12 mM MgATP (or 12 mM AMP) in test buffer, as a background control, separately preincubated.

CC#C[C@@H](CC(=O)O)c1ccc(OCC(C)=C(C)C)cc1 [Example S1, (3S)-3-{4-[(2,3-dimethylbut-2-en-1-yl)oxy]phenyl}hex-4-ynoic acid calcium salt]
IC50 (NTCP): 46.8 µM | IC50 (MRP4): 131 µM

Cc1cc(OCCCS(C)(=O)=O)cc(C)c1-c1cccc(COc2ccc3c(c2)OC[C@H]3CC(=O)O)c1 [Example R1, 2[(3S)-6-({3-[4-(3-methanesulfonylpropoxy)-2,6-dimethylphenyl]-phenyl}methoxy)-2,3-dihydro-1-benzofuran-3-yl]acetic acid, reference compound]
IC50 (NTCP): 53.1 µM | IC50 (MRP4): 6.9 µM
